# Results taken from patent publication US8557848B2, “4,5-ring annulated indole derivatives for treating or preventing of HCV and related viral infections” (Merck Sharp & Dohme Corp., priority 2006, dated 2013).
# Read-outs that look alike come from different tables or passages of the source.
# Tests used:
# [1] = target: T1, HCV NS5B polymerase (NS5BΔCT21, from HCV-Con 1 isolate, genotype 1b) (Hepatitis C virus genotype 1b, UniProt Q9WMX2); assay: HCV NS5B Polymerase Inhibition Assay; assay type: biochemical
# T1 construct: A soluble C-terminal 21-amino acid truncated NS5B enzyme form; polyhistidine (C); made in house; host or cells: Escherichia coli
# Description: A chemically synthesized 75-mer version, designated DCoH75, whose sequence matches the 3′-end of D-RNA, and DCoH75ddC, where the 3′-terminal cytidine of DCoH75 is replaced by dideoxycytidine, were used for assaying the NS5B enzyme activity as described in Ferrari et al., 12th International Symposium on HCV and Related Viruses, P-306 (2005). The sequence of the template RNA was: 5′-UGUGCCGGUCUUUCUGAACGGGAUAUAAACCUGGCCAGCUUCAUCGAACAAGUUGCCGUGUCUAUGACAUAGAUC-3′. A soluble C-terminal 21-amino acid truncated NS5B enzyme form (NS5BΔCT21, from HCV-Con 1 isolate, genotype 1b, Genbank accession number AJ238799) was produced and purified from Escherichia coli as C-terminal polyhistidine-tagged fusion protein as described in Ferrari et al., J. Virol. 73:1649-1654 (1999). A typical assay contained 20 mM Hepes pH 7.3, 10 mM MgCl2, 60 mM NaCl, 100 μg/ml BSA, 20 units/ml RNasin, 7.5 mM DTT, 0.1 μM ATP/GTP/UTP, 0.026 μM CTP, 0.25 mM GAU, 0.03 μM RNA template, 20 μCi/ml [^33P]-CTP, 2% DMSO, and 30 or 150 nM NS5B enzyme. Reactions were incubated at 22° C. for 2 hours, then stopped by adding 150 mM EDTA, washed in DE81 filter plate in 0.5M di-basic sodium phosphate buffer, pH 7.0, and counted using Packard TopCount after the addition of scintillation cocktail. Polynucleotide synthesis was monitored by the incorporation of radiolabeled CTP. The effect of the Compounds of Formula (I) on the polymerase activity was evaluated by adding various concentrations of a Compound of Formula (I), typically in 10 serial 2-fold dilutions, to the assay mixture. The starting concentrations ranged from 200 μM to 1 μM. An IC50 value for the inhibitor, defined as the compound concentration that provides 50% inhibition of polymerase activity, was determined by fitting the cpm data to the Hill equation Y=100/(1+10^((LogIC50-X)*HillSlope)), where X is the logarithm of compound concentration, and Y is the % inhibition. Ferrari et al., 12th International Symposium on HCV and Related Viruses, P-306 (2005) described in detail this assay procedure. It should be noted that such an assay as described is exemplary and not intended to limit the scope of the invention. The skilled practitioner can appreciate that modifications including but not limited to RNA template, primer, nucleotides, NS5B polymerase form, buffer composition, can be made to develop similar assays that yield the same result for the efficacy of the compounds and compositions described in the invention.
# NS5B polymerase inhibition data for selected Compounds of Formula (I) is provided below in Table 2, wherein the compound numbers correspond to the compound numbering set forth in the above specification.
# [2] = system: HCV replicon cells (replicon RNA level); assay: Cell-Based HCV Replicon Assay; conditions: Hepatitis C virus, 72 h; replicon RNA level by real time PCR (Taqman), cells harvested on day 3; read-out: EC50
# Method: To measure cell-based anti-HCV activity of the a Compound of Formula (I), replicon cells were seeded at 5000 cells/well in 96-well collagen I-coated Nunc plates in the presence of the Compound of Formula (I). Various concentrations of a Compound of Formula (I), typically in 10 serial 2-fold dilutions, were added to the assay mixture, with the starting concentration ranging from 250 μM to 1 μM. The final concentration of DMSO was 0.5%, fetal bovine serum was 5%, in the assay media. Cells were harvested on day 3 by the addition of 1× cell lysis buffer (Ambion cat #8721). The replicon RNA level was measured using real time PCR (Taqman assay). The amplicon was located in 5B. The PCR primers were: 5B.2F, ATGGACAGGCGCCCTGA; 5B.2R, […]; the probe sequence was FAM-labeled CACGCCATGCGCTGCGG. GAPDH RNA was used as endogenous control and was amplified in the same reaction as NS5B (multiplex PCR) using primers and VIC-labeled probe recommended by the manufacturer (PE Applied Biosystem). The real-time RT-PCR reactions were run on ABI PRISM 7900HT Sequence Detection System using the following program: 48° C. for 30 min, 95° C. for 10 min, 40 cycles of 95° C. for 15 sec, 60° C. for 1 min. The ΔCT values (CT5B-CTGAPDH) were plotted against the concentration of test compound and fitted to the sigmoid dose-response model using XLfit4 (MDL). EC50 was defined as the concentration of inhibitor necessary to achieve ΔCT=1 over the projected baseline; EC90 the concentration necessary to achieve ΔCT=3.2 over the baseline. Alternatively, to quantitate the absolute amount of replicon RNA, a standard curve was established by including serially diluted T7 transcripts of replicon RNA in the Taqman assay. All Taqman reagents were from PE Applied Biosystems. Such an assay procedure was described in detail in e.g. Malcolm et al., Antimicrobial Agents and Chemotherapy 50: 1013-1020 (2006).
# HCV Replicon assay data for selected Compounds of Formula (I) is provided below in Table 1, wherein the compound numbers correspond to the compound numbering set forth in the above specification.
# [3] = NS5B polymerase inhibition, [33P]-CTP incorporation, 22° C. for 2 hours, read-out: IC50
SMILES,"IC50 [1, 3]",EC50 [2],IC50 [1]
NC(=O)c1cc(Cn2c(C(=O)NS(=O)(=O)C3CC3)c(-c3ccc[nH]c3=O)c3c4occc4c(F)cc32)cs1 [Compound 183],< 25 nM,< 500 nM,
O=C(NS(=O)(=O)C1CC1)c1c(-c2ccc[nH]c2=O)c2c3occc3c(F)cc2n1Cc1ccc2[nH]c(C(F)(F)F)nc2c1 [Compound 222],< 25 nM,< 500 nM,
O=C(O)c1c(-c2ccc[nH]c2=O)c2c3occc3c(F)cc2n1Cc1cc2ccccc2nc1Cl [Compound 126],,< 500 nM,< 25 nM
O=C(O)c1c(-c2ccc[nH]c2=O)c2c3occ(Cl)c3c(F)cc2n1Cc1cc2ccccc2nc1Cl [Compound 159],< 25 nM,< 500 nM,
O=C(O)c1ccc(F)c(Cn2c(C(=O)O)c(-c3ccc[nH]c3=O)c3c4occc4c(F)cc32)c1 [Compound 108],< 25 nM,500 to 1500 nM,
Cc1cccc(Cn2c(C(=O)NS(=O)(=O)C3CC3)c(-c3ccc[nH]c3=O)c3c4occc4c(F)cc32)c1F [Compound 171],< 25 nM,< 500 nM,
NC(=O)c1cnc(F)c(Cn2c(C(=O)NS(=O)(=O)C3CC3)c(-c3ccc[nH]c3=O)c3c4c(c(F)cc32)CCO4)c1 [Compound 200],< 25 nM,< 500 nM,
CC(C)S(=O)(=O)NC(=O)c1c(-c2ccc[nH]c2=O)c2c3occc3c(F)cc2n1Cc1cc(C(N)=O)ccc1F [Compound 199],< 25 nM,< 500 nM,
O=C(O)c1c(-c2ccc[nH]c2=O)c2c3occ(Cl)c3c(F)cc2n1Cc1cc(F)ccc1F [Compound 119],< 25 nM,< 500 nM,
CCS(=O)(=O)NC(=O)c1c(-c2ccc[nH]c2=O)c2c3occc3ccc2n1Cc1ccccc1F [Compound 68],< 25 nM,< 500 nM,
CS(=O)(=O)NC(=O)c1c(-c2ccc[nH]c2=O)c2c3occc3ccc2n1Cc1ccc(F)cc1F [Compound 4],25 to 100 nM,< 500 nM,
NC(=O)c1cc(Cn2c(C(=O)NS(=O)(=O)C3CC3)c(-c3ccc[nH]c3=O)c3c4c(c(F)cc32)CCO4)cs1 [Compound 185],< 25 nM,< 500 nM,
CCc1coc2c1ccc1c2c(-c2ccc[nH]c2=O)c(C(=O)NS(C)(=O)=O)n1Cc1cc(F)ccc1F [Compound 69],> 100 nM,< 500 nM,
CCOC(=O)c1c(-c2ccccc2F)c2c3c(C)c(C)[nH]c3ccc2n1Cc1ccccc1 [Compound 51],,> 1500 nM,> 100 nM
NC(=O)c1cnc(F)c(Cn2c(C(=O)O)c(-c3ccc[nH]c3=O)c3c4occc4c(F)cc32)c1 [Compound 109],< 25 nM,< 500 nM,
NC(=O)c1ccc(Cn2c(C(=O)O)c(-c3ccc[nH]c3=O)c3c4occc4c(F)cc32)cc1 [Compound 93],< 25 nM,< 500 nM,
C[C@@H]1COc2c1ccc1c2c(-c2ccc[nH]c2=O)c(C(=O)NS(=O)(=O)C2CC2)n1Cc1cc(F)ccc1F [Compound 173],< 25 nM,< 500 nM,
CS(=O)(=O)NC(=O)c1c(-c2ccc[nH]c2=O)c2c3occc3c(F)cc2n1Cc1ccc2[nH]c(C(F)(F)F)nc2c1 [Compound 208],< 25 nM,< 500 nM,
CS(=O)(=O)NC(=O)c1c(-c2ccc[nH]c2=O)c2c3occc3c(F)cc2n1Cc1csc(C(N)=O)c1 [Compound 165],< 25 nM,< 500 nM,

SMILES,"IC50 [1, 3]",EC50 [2],IC50 [1]
O=C(O)c1c(-c2ccc[nH]c2=O)c2c3c(ccc2n1Cc1cc(F)ccc1F)OC(F)(F)O3 [Compound 37],< 25 nM,> 1500 nM,
O=C(O)c1c(-c2ccc[nH]c2=O)c2c3occc3ccc2n1Cc1ccccc1F [Compound 1],< 25 nM,< 500 nM,
O=C(NS(=O)(=O)C1CC1)c1c(-c2ccc[nH]c2=O)c2c3occc3ccc2n1Cc1cc2ccccc2nc1Cl [Compound 201],< 25 nM,< 500 nM,
NCc1cccc(Cn2c(C(=O)O)c(-c3ccc[nH]c3=O)c3c4occc4c(F)cc32)c1 [Compound 81],< 25 nM,< 500 nM,
O=C(NS(=O)(=O)C1CC1)c1c(-c2ccc[nH]c2=O)c2c3occc3c(F)cc2n1Cc1cc(C(O)CO)ccc1F (stereo not shown) [Compound 207],< 25 nM,< 500 nM,
O=C(NS(=O)(=O)C1CC1)c1c(-c2ccc[nH]c2=O)c2c3c(ccc2n1Cc1cc(F)ccc1F)CCO3 [Compound 164],< 25 nM,< 500 nM,
Cc1cc2ccc3c(c(-c4ccc[nH]c4=O)c(C(=O)O)n3Cc3cc(F)ccc3F)c2o1 [Compound 85],< 25 nM,> 1500 nM,
O=C(O)c1c(-c2ccc[nH]c2=O)c2c3occc3c(F)cc2n1Cc1cc2nc[nH]c2cc1Cl [Compound 120],< 25 nM,< 500 nM,
O=C(O)c1c(-c2ccc[nH]c2=O)c2c3ccoc3ccc2n1Cc1ccccc1F [Compound 39],25 to 100 nM,> 1500 nM,
CC(C)S(=O)(=O)NC(=O)c1c(-c2ccc[nH]c2=O)c2c3c(c(F)cc2n1Cc1cc2ccccc2nc1Cl)CCO3 [Compound 216],< 25 nM,< 500 nM,
NC(=O)c1cnc(F)c(Cn2c(C(=O)O)c(-c3ccc[nH]c3=O)c3c4c(c(F)cc32)CCO4)c1 [Compound 113],< 25 nM,< 500 nM,
NC(=O)c1ccc(F)c(Cn2c(C(=O)O)c(-c3ccc[nH]c3=O)c3c4occc4c(F)cc32)c1 [Compound 107],< 25 nM,< 500 nM,
CS(=O)(=O)NC(=O)c1c(-c2ccc[nH]c2=O)c2c3c(c(F)cc2n1Cc1csc(C(N)=O)c1)CCO3 [Compound 167],< 25 nM,< 500 nM,
O=C(O)c1c(-c2ccc[nH]c2=O)c2c3occc3c(F)cc2n1Cc1nc2ccccc2[nH]c1=O [Compound 117],< 25 nM,< 500 nM,
CNC(=O)c1ccc(F)c(Cn2c(C(=O)O)c(-c3ccc[nH]c3=O)c3c4occc4c(F)cc32)c1 [Compound 121],< 25 nM,< 500 nM,
Cn1cc(F)c(Cn2c(C(=O)O)c(-c3ccc[nH]c3=O)c3c4occc4c(F)cc32)cc1=O [Compound 96],< 25 nM,< 500 nM,
Cc1cc2ccc3c(c(-c4ccc[nH]c4=O)c(C(=O)NS(C)(=O)=O)n3Cc3cc(F)ccc3F)c2o1 [Compound 147],< 25 nM,> 1500 nM,
CS(=O)(=O)NC(=O)c1c(-c2ccc[nH]c2=O)c2c3occc3ccc2n1Cc1ccccc1F [Compound 4],< 25 nM,< 500 nM,
Cc1ccccc1Cn1c(C(=O)NS(=O)(=O)C2CC2)c(-c2ccc[nH]c2=O)c2c3occc3ccc21 [Compound 138],< 25 nM,< 500 nM,
